# What was measured:
# [1] = tested on: BMp190 cells (murine bone marrow transduced with BCR-Abl p190); experiment: Cell viability assay, BCR-Abl p190-expressing murine bone marrow (BM-p190); format: cell-based
# Excerpt: (§1) Leukemia cell assays: Effects of chemical changes on ability to kill cells as observed in cell viability assays using the BCR-ABL positive human acute lymphoblastic leukemia (ALL) cell line, Sup-B15 are described. Assays using the Sup-B15 cell line were designed to determine efficacy of azacyclic constrained small molecule analogs of FTY720 in killing leukemia cells. Analogs were generated using the synthesis methods mentioned above. Sup-B15 cells were maintained at 2-3 million/mL in RPMI 1640 (by Mediatech™) supplemented with 10% fetal calf serum (by Sigma-Aldrich™), 10 mM Hepes (by Mediatech™), 55 μM β-mercaptoethanol (by Sigma-Aldrich™), 2 mM L-glutamine (by Mediatech™), and antibiotics. BV173, Nalm-6, and Blin-1 were maintained at 1-2 million/mL and CCRF-CEM at less than 500,000/mL in the same medium. BMp190 cells were created by transducing murine bone marrow cells with pMIC-p190 which expresses the p190 isoform of BCR-Abl and human CD4 from an IRES; these cells were kept at 1-2 million/mL in RPMI supplemented as above.
# (§2) Flow cytometry: Much of the biological activity presented is shown through flow cytometry data. […] Here, IC50 flow cytometry assays were used. In them, viability was determined at 72 hours by vital dye exclusion [propium iodide or DAPI (4′,6-diamindino-2-phenylindole)]. To measure nutrient receptor expression following exposure to FTY720 and azacyclic constrained analogs of FTY720, surface 4F2hc expression was measured after 3 hours of drug treatment by staining 150,000 cells with phycoerythrin-conjugated mouse anti-human CD98 (by BD Biosciences™). Analysis was restricted to viable cells.
# (§3) All samples for the disclosed sets of data were analyzed on a BD LSR II flow cytometer and data analyzed with FlowJo™ software (by Treestar™). IC50's were calculated and statistical tests were performed using GraphPad Prism™.
# [2] = tested on: sphingosine-1-phosphate receptors; experiment: S1P receptor activation in CHO cells expressing the receptors; format: cell-based; conditions: added to CHO cells expressing the receptors
# Method: When the pure phosphates are added to these CHO cells, multiple S1P receptors are activated when the phosphates are present at 1-10 uM. There is no enantiomer-selectivity in the activation of S1P receptors.
# BCR-Abl- LAX7R cells = experiment: Combination with trametinib in BCR-Abl- LAX7R patient leukemia cells; format: cell-based, human; conditions: some BCR-Abl negative patient leukemia samples
# Excerpt: (§4) FIGS. 10n and 10o provide data results from a study of the effectiveness of treating BCR-Abl+ SFO2 cells (10n), and also in BCR-Abl− LAX7R cells (10o), which is a late-stage leukemia resistant to chemotherapy.
# BCR-Abl+ SFO2 cells = experiment: Combination with trametinib in BCR-Abl+ SFO2 patient-derived leukemia cells; format: cell-based, human; conditions: cytostatic concentration of trametinib + cytostatic concentration of compound 6
# Excerpt: as §4
# [3] = tested on: PC3 prostate cancer cell line; experiment: Cell viability assay, PC3; format: cell-based, human; conditions: 72 h, vital dye exclusion and flow cytometry; read-out: Mean IC50 (+/- SEM) in cell viability assay, PC3 prostate
# Method: as §2, with “In them, viability was determined at 72 hours by vital dye exclusion [propium iodide or DAPI (4′,6-diamindino-2-phenylindole)].” left out, “cells. All samples for the disclosed sets of data were analyzed on a BD LSR II flow cytometer and data analyzed with FlowJo™ software (by Treestar™). IC50's were calculated and statistical tests were performed using GraphPad Prism™.” for “cells.”
# human colon cancer cells = experiment: Combination with trametinib in human colon cancer cells; format: cell-based
# sphingosine kinase 2 = molecular target: T1, sphingosine kinase 2 (Mus musculus, UniProt Q9JIA7); experiment: Phosphorylation by sphingosine kinase 2 in cells; format: cell-based
# T1 construct: endogenous in cells
# T1 sequence (Q9JIA7 1-617): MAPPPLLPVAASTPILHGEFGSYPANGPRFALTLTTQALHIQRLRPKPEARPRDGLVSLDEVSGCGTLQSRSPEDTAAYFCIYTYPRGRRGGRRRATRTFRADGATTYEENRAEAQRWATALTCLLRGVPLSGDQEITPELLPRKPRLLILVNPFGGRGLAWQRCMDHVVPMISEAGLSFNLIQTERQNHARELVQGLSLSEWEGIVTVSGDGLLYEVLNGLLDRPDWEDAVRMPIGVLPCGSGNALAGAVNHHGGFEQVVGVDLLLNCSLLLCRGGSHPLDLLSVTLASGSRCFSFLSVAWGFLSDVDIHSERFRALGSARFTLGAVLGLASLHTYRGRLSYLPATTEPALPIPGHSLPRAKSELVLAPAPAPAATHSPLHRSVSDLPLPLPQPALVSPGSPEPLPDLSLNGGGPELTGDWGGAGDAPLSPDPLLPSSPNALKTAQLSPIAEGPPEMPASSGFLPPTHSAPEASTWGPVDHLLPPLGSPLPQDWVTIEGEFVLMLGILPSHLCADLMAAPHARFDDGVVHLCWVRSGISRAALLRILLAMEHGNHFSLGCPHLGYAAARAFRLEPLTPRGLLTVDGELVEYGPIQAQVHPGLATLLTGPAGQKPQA
# Method: The importance of phosphorylation in the activity of compound 6 was then examined. In this study MEF knockout lines that show the same differential sensitivity to compound 6 relative to its enantiomers as leukemia cells were used (FIG. 10h). […] A phosphate and a non-phosphorylatable analog of compound 6 were then tested.
# [4] = tested on: CCRF-CEM Ph- ALL cell line; experiment: Cell viability assay, CCRF-CEM; format: cell-based, human; conditions: 72 h, vital dye exclusion and flow cytometry; read-out: Mean IC50 (+/- SEM) in cell viability assay, CCRF-CEM Ph- ALL
# Excerpt: as §1, §2, §3
# circulating lymphocytes = experiment: Lymphocyte sequestration (circulating lymphocytes); format: in vivo, mouse; conditions: number of circulating lymphocytes 12 h after dosage
# Excerpt: As previously discussed, FTY720 itself cannot be used in cancer patients because phosphorylation of FTY720 by SphKs makes FTY720-P, which acts at S1P receptors to cause bradycardia and immunosuppression (on-target effect for primary use).
# [5] = tested on: SupB15 model, leukemic burden in the bone marrow; experiment: In vivo SupB15 leukemia model; conditions: 21 days of treatment, 10 mg/kg i.p.
# Excerpt: Since compound 6 worked so well in the leukemia cell line, an examination of its effectiveness in vivo in a SupB15 model was undertaken.
# [6] = tested on: DU145 prostate cancer cell line; experiment: Cell viability assay, DU145; format: cell-based, human; conditions: 72 h, vital dye exclusion and flow cytometry; read-out: Mean IC50 (+/- SEM) in cell viability assay, DU145 prostate
# Method: as §2, with “In them, viability was determined at 72 hours by vital dye exclusion [propium iodide or DAPI (4′,6-diamindino-2-phenylindole)].” left out, “cells. All samples for the disclosed sets of data were analyzed on a BD LSR II flow cytometer and data analyzed with FlowJo™ software (by Treestar™). IC50's were calculated and statistical tests were performed using GraphPad Prism™.” for “cells.”
compound,measurement,setting,value
CCCCCCCCc1ccc(CO[C@@H]2CN[C@@H](CO)C2)cc1.Cl [Compound 6],IC50,"[1]; 72 h, vital dye exclusion and flow cytometry, read-out: Mean IC50 (+/- SEM) in cell viability assay, BM-p190",0.5 ± 0.1 µM
same,more active than compound 5,[1]; murine bone marrow transformed by BCR-ABL p190,10 fold
same,activation of sphingosine-1-phosphate receptors,[2],do not activate sphingosine-1-phosphate receptors
same,"sensitivity, combination with trametinib",BCR-Abl- LAX7R cells,sensitive to this drug combination
same,"sensitivity, single agent",BCR-Abl- LAX7R cells,not sensitive to compound 6 as a single agent
same,"cell killing, combination with trametinib",BCR-Abl+ SFO2 cells,kills patient-derived leukemia cells without killing the irradiated stromal cell layer
same,IC50,[3],13.5 ± 2.6 µM
same,"cell killing, combination of trametinib and compound 6",human colon cancer cells,can kill human colon cancer cells
same,"cell killing, single agent",human colon cancer cells,do not die
same,phosphorylation by sphingosine kinase 2 in cells,sphingosine kinase 2,more efficient
same,IC50,[4],8.2 ± 0.7 µM
same,lymphocyte sequestration / immunosuppression,circulating lymphocytes,does not cause immunosuppression
same,leukemic burden in the bone marrow,[5],dramatic reduction in the leukemic burden in the bone marrow
same,IC50,[6],15.1 ± 1 µM

# From US10077236B2, “Azacyclic constrained analogs of FTY720” (The Regents of the University of California, priority 2013, dated 2018)
